Experiment [1] concerns HIV. The following applies: cited from earlier work.
Experiment [2] concerns herpes simplex virus type 2. The experiment in a line: Antiviral activity against other viruses. The following applies: Human alphaherpesvirus 2, HeLa, Vero or PRK cell cultures, read-out: 50% effective inhibitory dose (EID50). The format is cell-based.
In experiment [3] the test system is HIV. The experiment in a line: Protection against HIV replication in MT-4 cells. The format is cell-based. The following applies: for inhibition at 0.1 µM: Human immunodeficiency virus 1, MT4, 0.1 μM.
The test system of experiment [4] is herpes simplex virus type 1. The experiment in a line: Antiviral activity against other viruses. Type of experiment: cell-based. The following applies: Human alphaherpesvirus 1, HeLa, Vero or PRK cell cultures, read-out: 50% effective inhibitory dose (EID50).
In the next experiment the test system is reovirus type 1. The experiment in a line: Antiviral activity against other viruses. Type of experiment: cell-based. The following applies: Mammalian orthoreovirus 1, HeLa, Vero or PRK cell cultures, read-out: 50% effective inhibitory dose (EID50).
The test system of a further experiment is MT-4 cells. The experiment in a line: Cytostatic effect (inhibition of cell proliferation). The conditions noted are these: Homo sapiens, MT4, read-out: IC50 (50%-inhibitory concentration, cell proliferation). The format is cell-based. The protocol: (§1) The compounds ddeCyd and ddCyd were evaluated for their cytostatic effect against a series of murin and human cell lines. This was based upon measuring the inhibition of cell proliferation according to the procedures described by De Clercq et al. in Mol.Pharmacol. 19, 321-330 (1981).
(§2) The following cell lines were used: murine leukemia L1210 cells, designated L1210/0; murine mammary carcinoma FM3A cells; human B-lymphoblast Raji cells; human T-lymphoblast Molt/4F cells; human T4 -lymphocyte ATH8 cells and human T4 -lymphocyte MT-4 cells.

The subject of another experiment is Molt/4F cells. The description is as above. The following applies: Homo sapiens, read-out: IC50 (50%-inhibitory concentration, cell proliferation). Type of experiment: cell-based. The procedure: as §1, §2
Another experiment relates to Raji cells. The experiment is described as above. Type of experiment: cell-based. The following applies: Homo sapiens, read-out: IC50 (50%-inhibitory concentration, cell proliferation). The procedure: as §1, §2
A further experiment relates to ATH8 cells. Described as above. The format is cell-based. The conditions noted are these: Homo sapiens, ATH-8, read-out: IC50 (50%-inhibitory concentration, cell proliferation). The protocol:
as §1, §2

The subject of experiment [5] is HIV. The experiment in a line: microbe, parasite or virus in culture. Type of experiment: cell-based.
In the next experiment the test system is Sindbis virus. The experiment in a line: Antiviral activity against other viruses. The format is cell-based. The following applies: HeLa, Vero or PRK cell cultures, read-out: 50% effective inhibitory dose (EID50).
Another experiment relates to L1210/0 cells. Kind of experiment: Cytostatic effect (inhibition of cell proliferation). The following applies: Mus musculus, read-out: IC50 (50%-inhibitory concentration, cell proliferation). The format is cell-based, murine. The procedure:
as §1, §2

The next experiment relates to FM3A cells. The description is as above. Type of experiment: cell-based, murine. The conditions noted are these: Mus musculus, read-out: IC50 (50%-inhibitory concentration, cell proliferation). The procedure: as §1, §2
A further experiment relates to polio virus type 1. Kind of experiment: organism not typed. The following applies: read-out: 50% effective inhibitory dose (EID50). The format is cell-based.
Experiment [6] concerns HIV. The experiment in a line: microbe, parasite or virus in culture. Type of experiment: cell-based. The following applies: Human immunodeficiency virus 1, MT4, read-out: % Inhibition of viral antigen expression.
In experiment [7] the test system is vesicular stomatitis virus. The experiment in a line: microbe, parasite or virus in culture. The format is cell-based. The conditions noted are these: read-out: 50% effective inhibitory dose (EID50).
Experiment [8] relates to parainfluenza virus type 3. The experiment in a line: Antiviral activity against other viruses. The format is cell-based. The following applies: Human respirovirus 3, HeLa, Vero or PRK cell cultures, read-out: 50% effective inhibitory dose (EID50).
The subject of another experiment is Coxsackie B4 virus. Kind of experiment: Antiviral activity against other viruses. Type of experiment: cell-based. The conditions noted are these: Enterovirus B, HeLa, Vero or PRK cell cultures, read-out: 50% effective inhibitory dose (EID50).
For experiment [9], the system named is HIV. The experiment in a line: microbe, parasite or virus in culture. The conditions noted are these: for pEC50: Human immunodeficiency virus 1, ATH-8, read-out: EID50 for inhibition of HIV cytopathogenicity. Type of experiment: cell-based. A general note: Protection from cytopathic effect is a common read-out in antiviral testing.
For the next experiment, the system named is vaccinia virus. The experiment in a line: microbe, parasite or virus in culture. Type of experiment: cell-based. The conditions noted are these: Orthopoxvirus vaccinia, read-out: 50% effective inhibitory dose (EID50).
In experiment [10] the test system is DNA viruses and RNA viruses. Kind of experiment: Antiviral activity against other viruses, overall statement. The following applies: in words. The format is cell-based.
For experiment [11], the system named is HIV-infected ATH8 cells / human lymphoid cell lines. The conditions noted are these: compared with corresponding saturated derivatives; cited from earlier work.

Consider five compounds from patent publication US5116822A, “Therapeutic application of dideoxycytidinene” (priority 1990, dated 1992).

pEC50, pIC50: −log10 of the molar value.

With `Cc1cn([C@H]2C[C@H](N=[N+]=[N-])[C@@H](CO)O2)c(=O)[nH]c1=O` [azidothymidine, 3'-azido-2',2'-dideoxythymidine], in the experiment with HIV [1] (lymphocyte cultures), the “inhibition of HIV replication” value is listed as “potent inhibitor of HIV replication”.

As for `Nc1ccn([C@H]2CC[C@@H](CO)O2)c(=O)n1` [ddCyd, 2',3'-dideoxycytidine, reference compound], the pEC50 (in experiment [2]; in experiment [4]; in the experiment on reovirus type 1; with Sindbis virus; with polio virus type 1; in experiment [7]) was less than 4.00 in each case. Besides, the pEC50 in experiment [8] is less than 4.00; in the experiment on Coxsackie B4 virus, less than 4.00; in the experiment with HIV [9] it was 6.52 to 7.00; with vaccinia virus, less than 4.00. Besides, the “protection of MT-4 cells” value in the experiment on HIV [3] (0.5 μM, in words) is recorded as “completely protected”. The inhibition at 0.1 µM is 75% with HIV [3]; 75% in the experiment on HIV [5] (Human immunodeficiency virus 1, ATH-8, 0.1 μM, ATH8 cells, no decrease upon prolonged exposure, read-out: protection against HIV replication in ATH8 cells); 70% in the experiment on HIV [6]. The pIC50 in the experiment on MT-4 cells is 4.46; in the experiment on Molt/4F cells, 4.77; in the experiment with Raji cells, 4.92; with ATH8 cells, 4.46; in the experiment on L1210/0 cells, 3.49; with FM3A cells it was less than 2.63. The “antiviral potency upon prolonged exposure” value in the experiment on HIV [5] is on record as “without decrease upon prolonged exposure”. Also, the “protection of ATH8 cells” value in the experiment on HIV [5] (0.5 μM, ATH8 cells, no decrease upon prolonged exposure) is reported as “completely protected”. Moreover, in the experiment with HIV [1] (in vitro), the “concentration effecting complete antiviral protection” value is 0.5 to 1.0 µM. Besides, the inhibition at 0.5 µM with HIV [6] amounted to 96%. Further, the inhibition at 2 µM in the experiment with HIV [6] worked out at 97%. Further, the inhibition at 5 µM in the experiment on HIV [6] came out at 97%. For the same compound, the inhibition at 20 µM with HIV [6] turned out to be 96%. Also, in [10], the “antiviral effect against other (non-oncogenic RNA and DNA) viruses” value was “neither ddeCyd nor ddCyd demonstrated any significant antiviral effect”.

In the case of `Cc1cn([C@H]2C=C[C@@H](CO)O2)c(=O)[nH]c1=O` [2',3'-unsaturated 2',3'-dideoxythymidine], the “protection of HIV-infected ATH8 cells and/or cytostatic activity against human lymphoid cell lines” value in [11] is “significantly less protective against HIV-infected ATH8 cells and/or considerably more cytostatic against human lymphoid cell lines”.

Regarding `Nc1ncnc2c1ncn2[C@H]1C=C[C@@H](CO)O1` [2',3'-unsaturated 2',3'-dideoxyadenosine], in [11], the “protection of HIV-infected ATH8 cells and/or cytostatic activity against human lymphoid cell lines” value is “significantly less protective against HIV-infected ATH8 cells and/or considerably more cytostatic against human lymphoid cell lines”.

As to `Nc1ccn([C@H]2C=C[C@@H](CO)O2)c(=O)n1` [ddeCyd, 2',3'-didehydro-2'-3'-dideoxycytidine], the pEC50 (in [2]; in [4]; with reovirus type 1; in the experiment with Sindbis virus; with polio virus type 1; in experiment [7]) was less than 4.00 throughout. Also, the pEC50 was less than 4.00 in experiment [8], less than 4.00 in the experiment on Coxsackie B4 virus, 6.52 to 7.00 in the experiment on HIV [9] and less than 4.00 in the experiment with vaccinia virus. In addition, the inhibition at 0.1 µM in the experiment on HIV [3] was 28%; in the experiment with HIV [5] (Human immunodeficiency virus 1, ATH-8, 168 h, read-out: protection of cells against destruction by the virus), approximately 40%; in the experiment on HIV [6], 20%. The inhibition at 0.5 µM with HIV [3] (Human immunodeficiency virus 1, MT4, 0.5 μM) worked out at 91%; in the experiment with HIV [6], 85%. Also, the pIC50 in the experiment on MT-4 cells is 4.82; in the experiment with Molt/4F cells, 4.70; in the experiment with Raji cells, 4.89; with ATH8 cells it was 4.52; with L1210/0 cells it was 3.71; in the experiment on FM3A cells, 2.94. Further, the “antiviral potency upon prolonged exposure” value with HIV [5] is listed as “decrease in antiviral potency”. Besides, the “protection of cells against destruction by the virus” value in the experiment on HIV [5] is “almost complete protection”. For the same compound, in the experiment with HIV [5] (10 days (vs 7 days), ATH8 cells), the “protective effect at a longer time interval” value is “somewhat lower”. Also, the EC (optimum protection) in the experiment with HIV [5] (Human immunodeficiency virus 1, ATH-8, 240 h, 10 days, ATH8 cells, read-out: concentration for optimum protection) was approximately 2 µM. In addition, the inhibition at 0.02 µM with HIV [6] (0.02 μM) turned out to be 8%. Besides, in the experiment with HIV [6], the inhibition at 2 µM was determined as 98%. Moreover, the inhibition at 5 µM in the experiment on HIV [6] stood at 98%. Moreover, in the experiment on HIV [6], the inhibition at 20 µM amounted to 96%. Moreover, in the experiment on HIV [9] (ATH 8 and MT-4 cells, compared with 2',3'-dideoxycytidine), the “effectiveness in inhibiting cytopathogenicity and antigen expression of HIV” value is given as “almost as effective as 2',3'-dideoxycytidine”. In the experiment on HIV [9] (T-cells), the “fold by which HIV-inhibiting concentrations are below any toxicity for the host cells” value is reported as “at least 100 fold”. The “inhibition of human immunodeficiency virus in cell cultures” value with HIV [9] (in words) is “potent and selective inhibitor of human immunodeficiency virus in cell cultures”. The “antiviral effect against other (non-oncogenic RNA and DNA) viruses” value is listed as “neither ddeCyd nor ddCyd demonstrated any significant antiviral effect” in experiment [10] and “not show any inhibitory effect” in [10] (listed as 2',3'-dideoxycytidinene).
